In one data set the test system is MERS-CoV. The experiment in a line: microbe, parasite or virus in culture. It counts as cell-based. To be noted: Middle East respiratory syndrome-related coronavirus, Calu-3 2B4, read-out: EC50 against MERS-CoV.
A further data set is described as follows: in vitro. To be noted: human, % Cytotoxicity (Fig1E).
The subject of another data set is SARS-CoV-2 nLUC. The data set is described as follows: microbe, parasite or virus in culture. It counts as cell-based. To be noted: for inhibition at 0.00152 µM: drug 0.00152 µM; for inhibition at 0.00457 µM: drug 0.00457 µM; for inhibition at 0.01372 µM: drug 0.01372 µM; for inhibition at 0.04115 µM: drug 0.04115 µM; for inhibition at 0.37037 µM: drug 0.37037 µM; for inhibition at 3.33333 µM: drug 3.33333 µM; for Relative Light Units (RLU) (FigS1A): replicate wells.

A further data set deals with SARS-CoV-2 fLUC. The data set is described as follows: microbe, parasite or virus in culture. It counts as cell-based. To be noted: for EC50: Severe acute respiratory syndrome coronavirus 2, NHBE, 24 h, read-out: EC50, inhibition of SARS-CoV-2 replication in NHBE cultures; for % Inhibition (Fig1F): duplicate values; for Relative Light Units (RLU) (FigS1C): duplicates.
Another data set is described as follows: in vivo. As to conditions: BALB/c, mouse, po, 20 mg/kg.
The conditions of data set [1]: in vivo; cited from earlier work.
The test system of data set [2] is alpha, beta, and gamma SARS-CoV-2 VOCs. As to conditions: cited from earlier work.
A further data set deals with SARS-CoV-2. It counts as cell-based.
For data set [3] the following is noted: African green monkeys; cited from earlier work.
The mark [4] stands for this setting: Severe acute respiratory syndrome coronavirus 2, read-out: % Inhibition (Fig1D).
Setting [5] is: Severe acute respiratory syndrome coronavirus 2, drug 10 µM, read-out: % Inhibition (Fig1D).
The mark [6] stands for this setting: Severe acute respiratory syndrome coronavirus 2, read-out: Average EC50 (nM) A549-hACE2.
Setting [7] is: Severe acute respiratory syndrome coronavirus 2, read-out: average half-maximum effective concentration (EC50), SARS-CoV-2 nLUC replication.
Setting [8] is: concentration 0.222222 (unit not given).
Setting [9] is: concentration 0.666667 (unit not given).
[10] abbreviates: concentration 2 (unit not given).

“And” between values parts separate entries of the source, which are not always exact repeats. Identical values can stand only once. Like-named read-outs stand apart in the source and are kept apart here.

In general, inhibition refers to the drop in the measured response relative to a control, in per cent. As usually defined, the half-life is the time needed for the level to fall by half in the phase considered. High values mean slow loss, low ones fast loss.

Turning to `N#C[C@@]1(c2ccc3c(N)ncnn23)O[C@H](CO)[C@@H](O)[C@H]1O` [GS-441524, reference compound], the EC50 with MERS-CoV was 2100 nM; in the data set on SARS-CoV-2 nLUC (setting [6]), 3370 nM; with SARS-CoV-2 nLUC (setting [7]), 3400 nM; with SARS-CoV-2 fLUC, 2450 nM. The cytotoxicity in “in vitro” (drug 0.00152 µM) was 4.91%; in “in vitro” (drug 0.00457 µM) it was 3.11%; in “in vitro” (drug 0.01372 µM) it was 6.91%; in “in vitro” (drug 0.04115 µM), 2.96%; in “in vitro” (drug 0.12346 µM) it was 5.66%; in the data set “in vitro” (drug 0.37037 µM), 7.63%. The cytotoxicity in the data set “in vitro” (drug 3.33333 µM) was 9.21%; in the data set “in vitro” (drug 10 µM), 7.34%. Also, in the data set on SARS-CoV-2 nLUC (setting [4]), the inhibition at 0.00152 µM was determined as 5.76%. In the data set with SARS-CoV-2 nLUC (setting [4]), the inhibition at 0.00457 µM was found to be 7.88%. Further, in the data set with SARS-CoV-2 nLUC (setting [4]), the inhibition at 0.01372 µM is 0.08%. Besides, in the data set on SARS-CoV-2 nLUC (setting [4]), the inhibition at 0.04115 µM was determined as 5.14%. Also, in the data set with SARS-CoV-2 nLUC (setting [4]), the inhibition at 0.37037 µM is -4.48%. The inhibition at 3.33333 µM in the data set on SARS-CoV-2 nLUC (setting [4]) was 42%. Moreover, the inhibition at 10 µM in the data set with SARS-CoV-2 nLUC (setting [5]) was 99%. For the same compound, the “% Inhibition (Fig1F)” value in the data set with SARS-CoV-2 fLUC (concentration 0.205761 (unit not given)) was 16.6269% and 13.9332%; in the data set on SARS-CoV-2 fLUC (concentration 0.617284 (unit not given)), 25.1934% and 32.3249%; with SARS-CoV-2 fLUC (concentration 1.85185 (unit not given)) it was 47.2673% and 45.1609%; with SARS-CoV-2 fLUC (concentration 5.55556 (unit not given)) it was 89.9387% and 91.061%; in the data set on SARS-CoV-2 fLUC (concentration 16.6667 (unit not given)), 99.9354% and 99.9435%; in the data set on SARS-CoV-2 fLUC (concentration 50 (unit not given)), 99.9909% and 99.9933%. Moreover, in the data set “in vivo”, the half-life is ~1 h.

Regarding `CC(C)C(=O)OCC1OC(C#N)(c2ccc3c(N)ncnn23)C(OC(=O)C(C)C)C1OC(=O)C(C)C` (centres unmarked) [GS-621763], the EC50 in the data set with MERS-CoV came to 740 nM; in the data set with SARS-CoV-2 nLUC (setting [6]), 2800 nM; in the data set with SARS-CoV-2 nLUC (setting [7]), 2800 nM; with SARS-CoV-2 fLUC it was 125 nM. For the same compound, the cytotoxicity in the data set “in vitro” (drug 0.00152 µM) was found to be 5.08%; in “in vitro” (drug 0.00457 µM), 2.88%; in “in vitro” (drug 0.01372 µM) it was 4.34%; in the data set “in vitro” (drug 0.04115 µM), 5.67%; in the data set “in vitro” (drug 0.12346 µM) it was 6.43%; in the data set “in vitro” (drug 0.37037 µM) it was 7.02%. Further, the results for the cytotoxicity in “in vitro” (drug 1.11111 µM), in the data set “in vitro” (drug 3.33333 µM) and in “in vitro” (drug 10 µM) were -1.19%, 1.11% and 4.64%, respectively. For the same compound, the “intact ester in plasma” value in data set [1] and in data set [3] was “no or very minimal intact ester observed in plasma” throughout. Further, in the data set on SARS-CoV-2 nLUC (setting [4]), the inhibition at 0.00152 µM was -15.2%. For the same compound, in the data set with SARS-CoV-2 nLUC (setting [4]), the inhibition at 0.00457 µM is -13.7%. In the data set on SARS-CoV-2 nLUC (setting [4]), the inhibition at 0.01372 µM was -12.3%. The inhibition at 0.04115 µM in the data set on SARS-CoV-2 nLUC (setting [4]) is -15.7%. For the same compound, the inhibition at 0.12346 µM in the data set with SARS-CoV-2 nLUC (Severe acute respiratory syndrome coronavirus 2, drug 0.12346 µM, read-out: % Inhibition (Fig1D)) was -15.4%. Moreover, the inhibition at 0.37037 µM in the data set with SARS-CoV-2 nLUC (setting [4]) is -23%. Further, in the data set on SARS-CoV-2 nLUC (Severe acute respiratory syndrome coronavirus 2, drug 1.11111 µM, read-out: % Inhibition (Fig1D)), the inhibition at 1.11111 µM was -42%. The inhibition at 3.33333 µM in the data set on SARS-CoV-2 nLUC (setting [4]) was found to be 94.8%. Moreover, the inhibition at 10 µM in the data set on SARS-CoV-2 nLUC (setting [5]) is 99.3%. For the same compound, the “Relative Light Units (RLU) (FigS1A)” value in the data set with SARS-CoV-2 nLUC (drug 0.004 µM) is 1.49E+08 RLU and 1.35E+08 RLU and 1.13E+08 RLU; in the data set on SARS-CoV-2 nLUC (drug 0.04 µM) it was 1.45E+08 RLU and 1.37E+08 RLU and 1.12E+08 RLU; in the data set with SARS-CoV-2 nLUC (drug 0.12 µM), 1.47E+08 RLU and 1.37E+08 RLU and 1.32E+08 RLU; with SARS-CoV-2 nLUC (drug 0.37 µM), 1.64E+08 RLU and 1.46E+08 RLU and 1.36E+08 RLU; in the data set with SARS-CoV-2 nLUC (drug 1.1 µM), 1.69E+08 RLU and 1.76E+08 RLU and 1.62E+08 RLU; with SARS-CoV-2 nLUC (drug 3.3 µM), 6190000 RLU and 6040000 RLU and 1.36E+07 RLU. In the data set with SARS-CoV-2 nLUC (drug 10 µM), the “Relative Light Units (RLU) (FigS1A)” value is 708000 RLU and 801000 RLU and 866000 RLU. For the same compound, in [2], the “antiviral activity against alpha, beta, and gamma SARS-CoV-2 VOCs” value is “potently antiviral”. The “antiviral activity / infectious virus titers in HAE cell cultures” value in the data set with SARS-CoV-2 was “confirmed the antiviral activity”; in the data set on SARS-CoV-2 (listed as GS621763), “reduces viral titers”. The “% Inhibition (Fig1F)” value was 65.5149% and 78.3611% in the data set on SARS-CoV-2 fLUC (setting [8]); 97.4321% and 98.0439% in the data set on SARS-CoV-2 fLUC (setting [9]); 99.8762% and 99.9108% in the data set with SARS-CoV-2 fLUC (setting [10]). Moreover, the “Relative Light Units (RLU) (FigS1C)” value in the data set on SARS-CoV-2 fLUC (drug concentration 0.00823) was 7706513 RLU and 5857613 RLU; with SARS-CoV-2 fLUC (drug concentration 0.024691) it was 7329653 RLU and 5548473 RLU; in the data set with SARS-CoV-2 fLUC (drug concentration 0.074074), 5615903 RLU and 3756783 RLU; in the data set with SARS-CoV-2 fLUC (drug concentration 0.222222), 2451403 RLU and 1538223 RLU; in the data set on SARS-CoV-2 fLUC (drug concentration 0.666667), 182543 RLU and 139053 RLU; in the data set with SARS-CoV-2 fLUC (drug concentration 2) it was 8803.33 RLU and 6343.33 RLU.

For the compound `CC(C)C(=O)OC[C@H]1O[C@@H](n2ccc(NO)nc2=O)[C@H](O)[C@@H]1O` [MPV, molnupiravir, reference compound], the “NHC plasma exposures, dose proportionality” value (MPV 30 mg/kg or 100 mg/kg oral, BID) is recorded as “dose proportional increases in NHC plasma exposures”.

As for `O=c1nc(NO)ccn1[C@@H]1O[C@H](CO)[C@@H](O)[C@H]1O` [NHC], the “Plasma NHC, FigS5” value (Group 1, time 12.5, individual mice, oral MPV) was 48.2 μM and 56.9 μM (2×) and 55.4 μM.

Turning to `CCC(CC)COC(=O)C(C)NP(=O)(OCC1OC(C#N)(c2ccc3c(N)ncnn23)C(O)C1O)Oc1ccccc1` (centres unmarked) [RDV (GS-5734)], the “% Inhibition (Fig1F)” value with SARS-CoV-2 fLUC (concentration 0.024691 (unit not given)) was 24.385% and 40.4776%; in the data set on SARS-CoV-2 fLUC (concentration 0.074074 (unit not given)), 79.3894% and 81.2356%; in the data set on SARS-CoV-2 fLUC (setting [8]), 99.4779% and 99.6549%; in the data set on SARS-CoV-2 fLUC (setting [9]) it was 99.9727% and 99.9783%; in the data set on SARS-CoV-2 fLUC (setting [10]) it was 99.9953% and 99.9938%.

Consider `CCC(CC)COC(=O)[C@H](C)N[P@](=O)(OC[C@H]1O[C@@](C#N)(c2ccc3c(N)ncnn23)[C@H](O)[C@@H]1O)Oc1ccccc1` [RDV, remdesivir, reference compound], for which the EC50 with MERS-CoV is 160 nM; in the data set with SARS-CoV-2 nLUC (setting [6]) it was 294 nM; in the data set on SARS-CoV-2 nLUC (setting [7]), 290 nM; in the data set on SARS-CoV-2 fLUC, 37.1 nM.

Source of the values: publication PMC8995034 (Science Translational Medicine, 2022).
